Reference: ChEMBL document CHEMBL1201862, “PubChem BioAssay data set” (2004)
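Each compound was tested at five concentrations against cells in 96-well plates for 48 hours. GI50 = concentration required for 50% inhibition of growth.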 Activity calls are given as the source filed them. Rule as the data show it: active = GI50 up to about 1.1 µM and inactive = higher.

Key:
Test in all cases: growth of human tumour cells (NCI), 48 h
[1] = system: RXF 393
[2] = system: A498
[3] = system: OVCAR-5
[4] = system: SW-620
[5] = system: UO-31
[6] = system: SNB-19
[7] = system: SK-MEL-5
[8] = system: HT-29
[9] = system: SK-MEL-2
[10] = system: RPMI-8226
[11] = system: ACHN
[12] = system: NCI/ADR-RES
[13] = system: SK-OV-3
[14] = system: EKVX
[15] = system: LOX IMVI
[16] = system: NCI-H522
[17] = system: 786-0
[18] = system: Malme-3M
[19] = system: HCT-116
[20] = system: CAKI-1

Measured: GI50

CNc1ccc(Cl)cc1S(=O)(=O)c1ccccc1[N+](=O)[O-]
inactive: [1] > 100 µM | [2] > 100 µM | [3] > 100 µM | [4] > 100 µM | [5] > 100 µM | [6] > 100 µM | [7] 46.7 µM | [8] > 100 µM | [9] > 100 µM | [10] > 100 µM | [11] > 100 µM | [12] > 100 µM | [13] > 100 µM | [14] > 100 µM | [15] > 100 µM | [16] > 100 µM | [17] > 100 µM | [18] > 100 µM | [19] > 10 µM

O=[N+]([O-])c1ccc(/C=N/n2c(S)nnc2CCc2nnc(S)n2/N=C/c2ccc([N+](=O)[O-])o2)o1
inactive: [1] 16.7 µM | [2] > 100 µM | [3] > 100 µM | [4] 16.7 µM | [20] 20.2 µM | [5] 29.3 µM | [7] 17.3 µM | [8] 29.3 µM | [9] 18.5 µM | [10] 29.4 µM | [11] 23.1 µM | [12] 23.8 µM | [13] > 100 µM | [14] > 100 µM | [15] 20.4 µM | [16] 22.2 µM | [17] 17.1 µM | [19] 15.3 µM

Clc1ccc(Cl)c(/N=N\c2cc3c4c(c2)CCN4CCC3)c1
inactive: [1] 8.65 µM | [2] > 10 µM | [4] > 10 µM | [20] > 10 µM | [5] > 10 µM | [6] > 10 µM | [7] > 10 µM | [8] > 10 µM | [9] > 10 µM | [10] > 10 µM | [11] > 10 µM | [12] > 10 µM | [13] > 10 µM | [14] > 10 µM | [15] > 10 µM | [16] > 10 µM | [17] > 10 µM | [18] > 10 µM | [19] > 10 µM

CCOC(=O)N/N=C/C1=NN(C(=O)OCC)[S+]([O-])C1C (configuration not stated)
inactive: [1] > 100 µM | [2] > 100 µM | [3] > 100 µM | [4] > 100 µM | [20] > 100 µM | [5] > 100 µM | [6] > 100 µM | [7] > 100 µM | [8] > 100 µM | [9] > 100 µM | [10] > 100 µM | [11] > 100 µM | [12] > 100 µM | [13] > 100 µM | [14] > 100 µM | [16] > 100 µM | [17] > 100 µM | [18] > 100 µM | [19] > 100 µM

Nc1c(Br)cc(-c2nc3ccccc3s2)cc1Br
inactive: [1] > 100 µM | [2] > 100 µM | [3] > 100 µM | [4] > 100 µM | [20] > 100 µM | [5] > 100 µM | [6] > 100 µM | [7] > 100 µM | [8] > 100 µM | [9] > 100 µM | [11] > 100 µM | [12] > 100 µM | [13] > 100 µM | [14] > 100 µM | [16] > 100 µM | [17] > 100 µM | [18] > 100 µM | [19] > 100 µM

O=C(O)/C=C\C(=O)Nn1c(Cc2ccc(Cl)cc2)n[nH]c1=O
inactive: [1] > 100 µM | [2] > 100 µM | [3] > 100 µM | [20] > 100 µM | [7] > 100 µM | [8] > 100 µM | [9] > 100 µM | [12] > 100 µM | [13] > 100 µM | [14] > 100 µM | [16] > 100 µM | [17] > 100 µM | [18] > 100 µM | [19] > 100 µM

CCOC(=O)/C=C(/C(=O)OCC)n1c(=O)c(C)cn(C2CC(N=[N+]=[N-])C(CO)O2)c1=O (configuration not stated)
inactive: [1] 24.2 µM | [2] 44.1 µM | [3] > 100 µM | [4] 17 µM | [20] 31.6 µM | [5] 46.6 µM | [6] > 100 µM | [8] 35.7 µM | [9] 19.5 µM | [10] 17.4 µM | [11] 32.9 µM | [12] > 100 µM | [13] > 100 µM | [14] 28.1 µM | [15] 27.5 µM | [16] 20.7 µM | [17] 25.4 µM | [18] 54.3 µM | [19] 37.2 µM

C[C@H](CCC(=O)O[C@@H]1CC[C@@]2(C)C(CC[C@H]3[C@@H]4CC[C@H]([C@H](C)CCc5nc6ccccc6[nH]5)[C@@]4(C)CC[C@@H]32)C1)[C@H]1CC[C@H]2[C@@H]3CCC4C[C@H](O)CC[C@]4(C)[C@H]3CC[C@]12C (some centres not stated)
inactive: [1] > 100 µM | [2] > 87.5 µM | [3] > 100 µM | [4] > 100 µM | [20] > 31.3 µM | [5] 2.43 µM | [6] 5.48 µM | [7] > 100 µM | [8] > 57.5 µM | [9] > 100 µM | [10] > 100 µM | [11] 4.13 µM | [12] > 100 µM | [13] > 81.5 µM | [14] > 100 µM | [15] 3.95 µM | [16] 3.16 µM | [17] 11.5 µM | [19] > 100 µM

CC(C)(Oc1ccc(Cl)cc1)C(=O)N(C(=O)N1CCN(c2ccccc2)CC1)c1ccccc1
inactive: [1] > 100 µM | [2] 84.9 µM | [3] > 100 µM | [4] 8.93 µM | [20] 7.87 µM | [5] 11.7 µM | [6] > 100 µM | [7] 4.68 µM | [8] 6.25 µM | [9] > 100 µM | [11] 9.71 µM | [12] 7.05 µM | [13] > 100 µM | [14] 5.83 µM | [15] > 100 µM | [16] 5.57 µM | [17] 28.4 µM | [18] > 100 µM | [19] 4.06 µM

CC1(C)CC(=O)C(=CNc2nc(-c3cccc([N+](=O)[O-])c3)cs2)C(=O)C1
inactive: [1] 21.7 µM | [2] 13.8 µM | [3] 46.3 µM | [4] 11.9 µM | [20] 11.3 µM | [5] 25.6 µM | [6] 15.3 µM | [8] 17 µM | [9] 55.8 µM | [10] 17.9 µM | [11] 18.2 µM | [12] 18 µM | [13] 32.7 µM | [14] 14.7 µM | [15] 13.7 µM | [16] 9.04 µM | [17] 15.1 µM | [19] 14.9 µM
